Results on 3 compounds are retold here after patent US4362746A (priority 1981, dated 1982).

For data set [1] the following is noted: U.S. Pat. Nos. 3,932,512 and 4,046,811; cited from earlier work.
For the next data set, the system named is Influenza A2 /MTL/68. The experiment in a line: In vitro anti-myxovirus assay, inhibition of hemadsorption, Influenza A2/MTL/68 in G-2 cells. The data set is classed as cell-based, Influenza A2 /Montreal/68. To be noted: for inhibition at 5 µg/mL: 5 ug/ml; for inhibition at 10 µg/mL: 10 ug/ml; for inhibition at 25 µg/mL: 25 ug/ml; for inhibition at 33 µg/mL: 33 ug/ml; for inhibition at 50 µg/mL: 50 ug/ml.

The test system of data set [2] is Influenza A/Swine/1976/31. The experiment in a line: microbe, parasite or virus in culture. To be noted: in Sus scrofa. Format: cell-based.
The next data set concerns Influenza B/MASS/66. The data set is described as follows: In vitro anti-myxovirus assay, inhibition of hemadsorption, Influenza B/MASS/66 in G-2 cells. The data set is classed as cell-based. Particulars: Influenza B virus, 56 TCID50. On the procedure: In preparing the compounds for testing, they were handled aseptically throughout. The compounds were dissolved in a minimum amount of a suitable solvent and the final dilutions were made up to the required volume in a complete culture medium used in assay and in concentration not exceeding the predetermined maximum non-toxic levels.
The antiviral assays were done in tissue cultures infected with an appropriate dose of an influenza virus.
The cell culture used in all in vitro anti-myxovirus assays was an established cell line of the human conjunctiva (G-2 cells). The cytotoxic studies of each of the compounds were performed prior to testing for antiviral activity to determine level of response of the cells to the potentially toxic action of the compounds.
For the antiviral assays the cells were grown in triplicates per dilution of compound in test tubes in a suitable medium. Immediately before use the initial medium was replaced with the one containing the test compound in an appropriate concentration. After virus was added at approximately 10 and 100 TCID50 dose levels the infected culture was incubated at 32° C. for a number of days. The medium was then drained, red blood cells added and after washing, the extent of hemadsorption evaluated. The percentage of inhibition of adsorption (a measure of antiviral activity) was then calculated. In all anti-myxovirus testing in vitro, as well as in vivo, amantadine (a known antiviral agent) was used as a reference standard.

Data set [3] deals with influenza virus A2 /Aichi/2/68. The data set is classed as in vivo, mice (Charles River, random bred white, female). Particulars: for Mean Survival Time / Survival % / Survival N (surviving animals / total infected) / Mean Survival Time Increase: 16 days; for Mean Survival Time Increase: vs virus only.
Another data set relates to G-2 cells. Particulars: human, g-2 cells.
Data set [4] is described as follows: in vivo. To be noted: mouse.
Data set [5] in a line: in vivo. Particulars: mouse. This is another data set of the same source.
The nature of another data set: in vitro. Particulars: human, g-2 cells.
The next data set in a line: Acute toxicity in mice. To be noted: mouse, in vivo.
In data set [6] the test system is mice. The experiment in a line: Acute toxicity in mice. Particulars: after 24 hours.
The nature of data set [7]: Subacute toxicity in mice. To be noted: mouse, in vivo.
For data set [8], the system named is mice. The data set is described as follows: Subacute toxicity in mice. To be noted: for Subacute LD0 (non-lethal dose): once a day, seventeenth day of treatment.
Where [9] appears, read: Exp. 2, virus dose 2.0 LD50, 300 mg/kg/day IP.
Where [10] appears, read: Exp. 3, virus dose 2.6 LD50, 200 mg/kg/day IP.
The mark [11] stands for this setting: Exp. 4, virus dose 3.0 LD50, 200 mg/kg/day IP.

Structures can show the parent of a compound that is named as a salt. Where two headings read alike, the source gives them in different places. Where only a bound is given, the exact number is not on record here.

Turning to `N[C@@H]1C[C@H]2C[C@@H]1c1ccccc12` (relative stereo) [1,2,3,4-tetrahydro-1,4-methanonaphthalen-endo-2-amine], the antiviral activity entry in data set [1] is reported as “exhibited antiviral activity”.
Consider `CN(C)C[C@H]1[C@@H](N)[C@@H]2C[C@H]1c1ccccc12` (relative stereo) [Compound B, endo-3-dimethylaminomethyl-endo-2-amino-1,2,3,4-tetrahydro-1,4-methanonaphthalene dihydrochloride], for which the inhibition at 5 µg/mL is 0% in the data set with Influenza A2 /MTL/68 (32 TCID50); 0% in the data set on Influenza A2 /MTL/68 (316 TCID50); 0% in data set [2] (316 TCID50, 5 ug/ml). The inhibition at 10 µg/mL with Influenza A2 /MTL/68 (32 TCID50) came out at 30%; in the data set with Influenza A2 /MTL/68 (316 TCID50), 0%; in [2] (316 TCID50, 10 ug/ml), 70%; with Influenza B/MASS/66 (10 ug/ml), 0%. The inhibition at 25 µg/mL with Influenza A2 /MTL/68 (32 TCID50) is 78%; in the data set on Influenza A2 /MTL/68 (316 TCID50) it was 70%; in [2] (316 TCID50, 25 ug/ml), 92%; in the data set with Influenza B/MASS/66 (25 ug/ml) it was 17%. For the same compound, the inhibition at 33 µg/mL with Influenza A2 /MTL/68 (32 TCID50) stood at 93%; in the data set on Influenza A2 /MTL/68 (316 TCID50), 76%; in data set [2] (316 TCID50, 33 ug/ml) it was 100%; with Influenza B/MASS/66 (33 ug/ml), 43%. The values for the inhibition at 50 µg/mL with Influenza A2 /MTL/68 (32 TCID50), in the data set on Influenza A2 /MTL/68 (316 TCID50) and with Influenza B/MASS/66 (50 ug/ml) were 93%, 83% and 73%, respectively. For the same compound, the figures for the “Mean Survival Time” value in data set [3] (setting [9]), in data set [3] (setting [10]) and in data set [3] (setting [11]) were 14.5 days, 13.2 days and 13.5 days, respectively. Also, the results for the Survival % in data set [3] (setting [9]), in data set [3] (setting [10]) and in data set [3] (setting [11]) were 70%, 40% and 45%, respectively. The figures for the “Survival N (surviving animals / total infected)” value in data set [3] (setting [9]), in [3] (setting [10]) and in data set [3] (setting [11]) were 14/20, 8/20 and 9/20, respectively. Besides, the “Mean Survival Time Increase” value in data set [3] (setting [9]) is “+2.1 Days”; in [3] (setting [10]) it was “+2.1 Days”; in [3] (setting [11]), “+2.2 Days”. Besides, the “antiviral effect against influenza virus infection” value in data set [3] (administered intraperitoneally, […]) is reported as “significant antiviral effect”. Besides, the “Cytotoxicity CTD50” value with G-2 cells is > 100 µg/mL. In addition, the NOAEL at 24 h in “in vivo [4]” (ip) and in the data set “in vivo [4]” (po) was > 750 mg/kg/day in each case. Moreover, the NOAEL at 408 h in the data set “in vivo [5]” (ip) was found to be 400 mg/kg/day; in “in vivo [5]” (po) it was 750 mg/kg/day. The MNTC in “in vitro” (Cytotoxicity CTD0, maximal non-toxic concentration) amounted to 50 µg/mL. In “in vitro” (Cytotoxicity CTD50), this compound returned a CC50 of 100 µg/mL. Also, the LD50 at 24 h is 550 mg/kg in the data set “Acute toxicity in mice” (ip) and > 750 mg/kg in “Acute toxicity in mice” (po). Further, the results for the “Acute LD0 (non-lethal dose)” value in the data set on mice [6] (IP) and in the data set on mice [6] (PO) were 450 mg/kg/day and > 750 mg/kg/day, respectively. For the same compound, the LD50 at 408 h is 500 mg/kg in data set [7] (ip) and > 750 mg/kg in [7] (po). Also, the “Subacute LD0 (non-lethal dose)” value is 450 mg/kg/day with mice [8] (IP) and > 750 mg/kg/day in the data set on mice [8] (PO). The “clinical sign of toxicity (weight)” value in the data set on mice [8] (PO, subacute, at TD0 750) is “Slight loss of weight”.
As to `N[C@H]1C[C@H]2C[C@@H]1c1ccccc12` (relative stereo) [isomer with the amino substituent taking up the exo configuration], the antiviral activity result in [1] was “showed no antiviral activity”.
